Tests used:
ALYREF [1] = biological target: T1, ALYREF (Mus musculus, UniProt O08583, DEL113-113); test: cellular thermal shift assay (also DARTS in lysate); type: cell-based; conditions: Flag-tagged mutant transfected into mouse cardiomyocytes
T1 construct: full length; endogenous in neonatal mouse cardiomyocytes (wild type); Flag-tagged plasmids transfected into the cardiomyocytes for the deletion mutants

[2] = biological target: ALYREF (purified recombinant, pSMARt‐I‐ALYREF) (Mus musculus, UniProt O08583); test: in vitro droplet (phase separation) assay, microscopy; type: biochemical; conditions: 250 mmol/L Tris pH 8.0, 10% PEG-8000, room temperature
ALYREF [3] = biological target: T2, ALYREF (Mus musculus, UniProt O08583, DEL171-171); test: cellular thermal shift assay (also DARTS in lysate); type: cell-based; conditions: Flag-tagged mutant transfected into mouse cardiomyocytes
T2 construct: full length; endogenous in neonatal mouse cardiomyocytes (wild type); Flag-tagged plasmids transfected into the cardiomyocytes for the deletion mutants

ALYREF [4] = biological target: T3, ALYREF (Mus musculus, UniProt O08583); test: as above; type: cell-based; conditions: mouse cardiomyocytes; 40 to 67 °C, 3 min; vs DMSO
T3 construct: full length; endogenous in neonatal mouse cardiomyocytes (wild type); Flag-tagged plasmids transfected into the cardiomyocytes for the deletion mutants

With `COc1cccc2c1C(=O)c1c(O)c3c(c(O)c1C2=O)C[C@@](O)(C(=O)CO)C[C@@H]3O[C@H]1C[C@H](N)[C@H](O)[C@H](C)O1` [doxorubicin] the “binding retained (DARTS, CESTA)” value (ALYREF [1]) was “DOX remained capable of binding to the ΔD113 mutant”, the droplet disruption [2] was “also disrupted by DOX, which caused droplet disintegration and structural irregularity” and the “binding abolished (DARTS, CESTA)” value (ALYREF [3]) was “Deletion of D171 abolished the interaction between ALYREF and DOX”. For the same compound, the “thermal stability (CESTA)” value (ALYREF [4]) was “DOX treatment significantly increased the thermal stability of ALYREF compared with the DMSO control”.
